Where two headings read alike, the source gives them in different places.
Tests used:
[1] = target: guanosine/adenosine/cytidine nucleoside hydrolase (GACNH) (Trichomonas vaginalis, UniProt A2DN71); assay: 1H NMR-based activity assay of GACNH; format: biochemical; details: for inhibition at 250 µM: read-out: % inhibition at 250 μM against GACNH
[2] = test system: uridine nucleoside hydrolase (UNH); details: NMR screen of NIH Clinical Collection; cited from earlier work
[3] = target: T1, adenosine/guanosine nucleoside hydrolase (AGNH) (Trichomonas vaginalis, UniProt A2EYV3); assay: 1H NMR activity assay of AGNH; format: biochemical; details: for inhibition at 250 µM: read-out: % inhibition at 250 μM against AGNH
T1 sequence (A2EYV3 1-304): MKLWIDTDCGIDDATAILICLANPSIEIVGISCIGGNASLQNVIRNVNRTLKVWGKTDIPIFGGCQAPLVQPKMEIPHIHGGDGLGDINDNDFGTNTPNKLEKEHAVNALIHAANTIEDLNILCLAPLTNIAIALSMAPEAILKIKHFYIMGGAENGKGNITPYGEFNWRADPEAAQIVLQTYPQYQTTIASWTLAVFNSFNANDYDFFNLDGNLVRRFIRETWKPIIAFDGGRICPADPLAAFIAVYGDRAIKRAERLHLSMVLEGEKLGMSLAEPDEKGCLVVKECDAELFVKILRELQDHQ

[4] = test system: uridine nucleoside hydrolase (UNH); assay: 19F NMR activity assay of UNH; format: biochemical, Trichomonas vaginalis; details: 250 μM compound; NM = not measurable (percent inhibition < 10%)
[5] = IC50 (μM) with Triton, GACNH, in the presence of 0.01% Triton X-100
[6] = IC50 against GACNH, ribavirin analogs, Table 2
[7] = carboxamidine in place of carboxamide

Question: With `COc1ccc(-c2oc3c(CC=C(C)C)c(O[C@@H]4O[C@H](CO)[C@@H](O)[C@H](O)[C@H]4O)cc(O)c3c(=O)c2O[C@@H]2O[C@@H](C)[C@H](O)[C@@H](O)[C@H]2O)cc1` [Icariin] as the molecule, how does the IC50 [1, 5] read?
Answer: The IC50 was 5 ± 1.7 µM.

Question: Which IC50 [1, 5] does the source give for `O=c1c(O[C@@H]2O[C@H](CO)[C@@H](O)[C@H](O)[C@H]2O)c(-c2ccc(O)c(O)c2)oc2cc(O)cc(O)c12` [Isoquercitrin] here?
Answer: The IC50 was 2.2 ± 0.6 µM.

Question: With `OC[C@H]1O[C@@H](n2cnc3c(NC4CCCC4)nc(Cl)nc32)[C@H](O)[C@@H]1O` [CCPA, 2-chloro-N(6)-cyclopentyladenosine] as the molecule, how does the IC50 [1, 5] read?
Answer: Its IC50 is 14 ± 5.8 µM.

Question: Which “inhibition of UNH (earlier screen)” value [2] does the source give for `COCCCOc1ccnc(C[S+]([O-])c2nc3ccccc3[nH]2)c1C` (centres unmarked) [rabeprazole] here?
Answer: The value was “potent inhibitors”.

Question: With `O=C1c2c(O)cc(O)cc2O[C@H](c2ccc(O)c(O)c2)[C@H]1O` (racemic) [(±)-Taxifolin] as the molecule, how does the IC50 ([1]; read-out: IC50 (μM) with Triton, GACNH, in the presence of 0.01% Triton X-100) read?
Answer: Its IC50 is 41.6 ± 20.4 µM.

Question: With `CCc1oc2ccccc2c1C(=O)c1cc(Br)c(O)c(Br)c1` [Benzbromarone] as the molecule, how does the IC50 [1, 5] read?
Answer: The IC50 was 134 ± 32.7 µM.

Question: For `N=C(N)c1ncn([C@@H]2O[C@H](CO)[C@@H](O)[C@H]2O)n1` [Viramidine], which IC50 [1, 6] is on record?
Answer: Its IC50 is 1.1 ± 0.6 µM.

Question: What about the “enhancement of potency against GACNH relative to ribavirin” value [1, 7] of the same molecule?
Answer: The value was “about 10 fold”.

Question: And the IC50 [3]?
Answer: Its IC50 is 120 ± 30 nM.

Question: What about the “enhancement of potency against AGNH relative to ribavirin” value [3, 7] of the same molecule?
Answer: The value was “more than 100 fold”.

Question: And the “selectivity toward AGNH over GACNH” value ([3]; from IC50 values)?
Answer: Its value is 10 fold.

Question: And the “% inhibition at 250 μM against UNH” value [4]?
Answer: Its value is 55%.

Question: What does the source list for `NC(=O)c1ncn([C@@H]2O[C@H](CO)[C@@H](O)[C@H]2O)c1O` [Mizoribine]?
Answer: inhibition at 250 µM [1]: < 10%; inhibition at 250 µM [3]: < 10%; % inhibition at 250 μM against UNH [4]: NM (Not measurable (percent inhibition < 10%))

Question: For `COc1ccnc(C[S+]([O-])c2nc3ccc(OC(F)F)cc3[nH]2)c1OC` (centres unmarked) [pantoprazole], which “inhibition of UNH (earlier screen)” value [2] is on record?
Answer: The value was “potent inhibitors”.

Question: For `NC(=O)c1ncn([C@@H]2O[C@H](CO)[C@@H](O)[C@H]2O)n1` [Ribavirin], which IC50 [1, 5] is on record?
Answer: Its IC50 is 9 ± 3.3 µM.

Question: And the IC50 [1, 6]?
Answer: The IC50 was 8.6 ± 4.4 µM.

Question: What about the “GACNH inhibition in screen” value ([1]; screen of NIH Clinical Collection, 50 μM compound, 100 μM adenosine, 40 min) of the same molecule?
Answer: The value was “significant inhibition”.

Question: And the inhibition at 250 µM [3]?
Answer: The inhibition at 250 µM was 83%.

Question: And the “% inhibition at 250 μM against UNH” value [4]?
Answer: Its value is 58%.

Question: What does the source list for `NC(=O)c1ncn([C@@H]2O[C@H](CO)[C@@H](O)[C@H]2O)c1N` [Acadesine]?
Answer: inhibition at 250 µM [1]: 70%; inhibition at 250 µM [3]: < 10%; % inhibition at 250 μM against UNH [4]: 51%

Question: Which “inhibition of UNH (earlier screen)” value [2] does the source give for `COc1ccc2[nH]c([S+]([O-])Cc3ncc(C)c(OC)c3C)nc2c1` (centres unmarked) [omeprazole] here?
Answer: The value was “potent inhibitors”.

Question: Which IC50 [1, 5] does the source give for `O=c1c(O[C@@H]2O[C@H](CO)[C@H](O)[C@H](O)[C@H]2O)c(-c2ccc(O)c(O)c2)oc2cc(O)cc(O)c12` [Hyperoside] here?
Answer: Its IC50 is 22.6 ± 7.6 µM.

From paper PMC6163091 (Chemical biology & drug design, 2018)
